Columns and labels:
[1] = tested on: Peripheral Sensory Neuropathy Induced by Paclitaxel in Mice; test: cold plate test, paclitaxel-induced peripheral sensory neuropathy; type: in vivo; details: paclitaxel 6 mg/kg alone; Day 3
Method: The effect of the Lentinus edodes mycelium extract on the paresthesia to cold stimulation was tested by performing the cold plate test. The mice in the three groups in the above (1) were put on a cold plate set to 10° C. and a response time for avoidance (a latency) was measured. The shorter latency means that the mouse avoids the cold stimulation of the cold plate more.
In the present test, the mice were divided into four groups by a difference in test objects. As in Example 1, male Balb/c mice of 6 to 7 weeks old were used. The mice were divided into a total of four groups, a control group, a paclitaxel administration group, and two different paclitaxel and Lentinus edodes mycelium extract administration groups (paclitaxel+Lentinus edodes mycelium extract administration groups). […] Further, a group in which the Lentinus edodes mycelium extract was administered to each mouse once a day at a dose of 1 g/kg (hereinafter referred to as “1 g/kg administration group”) and a group in which the Lentinus edodes mycelium extract was administered to each mouse once a day at a dose of 2 g/kg (hereinafter referred to as “2 g/kg administration group”) were prepared.
Evaluation was performed in the same manner as in the test with oxaliplatin. Referring to FIG. 4, the horizontal axis indicates the elapsed time after administration (days) and the vertical axis indicates the avoidance response time (seconds). Open circles with a solid line represent the control group. Filled circles with a solid line represent the group in which only paclitaxel was administered. Open squares with a dash line and filled squares with a dash line represent the groups in which paclitaxel and the Lentinus edodes mycelium extract were administered at the same time (paclitaxel+Lentinus edodes mycelium extract administration groups). […] When the difference with the control group was determined to be significant using a significance level of 5%, the data were marked by “*”. […]

[2] = tested on: Peripheral Sensory Neuropathy Induced by Paclitaxel in Mice; test: von Frey test, paclitaxel-induced peripheral sensory neuropathy; type: in vivo; details: paclitaxel 6 mg/kg once a week alone, compared with control group; three days after the administration
Text: The mice in the three groups in the above (1) were put in a cage and a filament having a strength of 0.16 g was pressed on the plantar surface of the leg to measure the number of times (a score) of avoidance response.
Male Balb/c mice of 6 to 7 weeks old were used as in Example 1. The mice were divided into three groups: a control group, a paclitaxel administration group, and a paclitaxel and Lentinus edodes mycelium extract administration group (paclitaxel+Lentinus edodes mycelium extract administration group). Paclitaxel was administered to each mouse once a day at a dose of 6 mg/kg. Further, the Lentinus edodes mycelium extract was administered to each mouse once a day at a dose of 2 g/kg.
Further, the number of times of administration was set to once a week (on Day 0, Day 7, and Day 14) for paclitaxel and daily (from Day 0 to Day 15) for the Lentinus edodes mycelium extract in both the von Frey test and the cold plate test below.
Evaluation was performed in the same manner as in the test with oxaliplatin. Referring to FIG. 3, the horizontal axis indicates an elapsed time after administration (days) and the vertical axis indicates the avoidance response (scores). Open circles with a solid line represent the control group. Filled circles with a solid line represent the group in which only paclitaxel was administered. Open squares with a dash line represent the group in which paclitaxel and the Lentinus edodes mycelium extract were administered (paclitaxel+Lentinus edodes mycelium extract administration group). When the difference with the control group was determined to be significant using a significance level of 5%, the data were marked by “*”.
In the present test, the mice were divided into six groups by a difference in test objects. As in Example 1, male Balb/c mice of 6 to 7 weeks old were used. […]

## CC(=O)O[C@H]1C(=O)[C@@]2(C)[C@H]([C@H](OC(=O)c3ccccc3)[C@]3(O)C[C@H](OC(=O)[C@H](O)[C@@H](NC(=O)c4ccccc4)c4ccccc4)C(C)=C1C3(C)C)[C@]1(OC(C)=O)CO[C@@H]1C[C@@H]2O [paclitaxel]
[1]
  latency to the cold stimulation (avoidance response time), cold plate test: significantly reduced
[2]
  avoidance response (scores), von Frey test: significantly increased

— patent US11793845B2, “Composition for ameliorating peripheral sensory neuropathy” (KINKI UNIVERSITY, priority 2016, dated 2023)
